Experimental data reported in US20100016423A1, “USE OF DRONEDARONE FOR THE TREATMENT OF PATIENTS WITH ARRHYTHMIA AND HAVING AN INCREASE OF CREATININE LEVEL DUE TO DRONEDARONE ADMINISTRATION” (SANOFI-AVENTIS, priority 2008, published 2010).

How the values were obtained:
[1] = Br. J. Clin. Pharmac., 1993, 36, 125-127; cited from earlier work
[2] = Clinical trials with dronedarone: serum creatinine levels; type: in vivo
Experimental: The instant invention therefore relates to a method of managing the risk of an increased morbidity and mortality rate in patients treated by an association of dronedarone or one of its pharmaceutically acceptable salts and of at least a compound B selected from ACE inhibitors, angiotensin II receptor antagonists and potassium sparing diuretics. Said method is performed by performing the following steps: • a) initially measuring serum creatinine levels, such as within one week after initiation of treatment with dronedarone, which provides a reference level, • b) monitoring serum creatinine levels at regular intervals during treatment of the patient by the compound B (as recommended in the labelling of compound B), • c) if the serum creatinine levels increases above the reference level, clinical judgement should be made to determine if the increase is due to dronedarone, to compound B or to another cause, • d) to help clinical judgment and evaluate if the increase is due to dronedarone, dronedarone can be temporarily interrupted.
Concerning step a) of the methods of the invention, as mentioned before, in most patients with atrial fibrillation or atrial flutter the maximal increase in creatinine levels, compared to the level before administration of dronedarone, was smaller than 30%, with a mean increase ranging from 10 to 15% or more. Then during the treatment with dronedarone, mean creatinine levels remain stable, this corresponds to a plateau.

[3] = Specific study in healthy subjects: renal handling of creatinine; type: in vivo
[4] = ANDROMEDA (EFC4966) clinical trial in patients with a recent severe episode of Congestive Heart failure; type: in vivo; conditions: 400 mg BID
Experimental: Despite the equal distribution of treatment with ACE inhibitors/AII receptor antagonists at baseline, concomitant treatment with these drugs became unbalanced during the course of the ANDROMEDA study, as more patients in the dronedarone 400 mg BID group discontinued these treatments and fewer started them (table 2).
In the dronedarone 400 mg BID group, 14 of 41 patients who discontinued ACE/AII experienced “blood creatinine increased” or “renal impairment” adverse events, versus none among the 18 patients taking placebo in this category. This observation supports the hypothesis that an increase in serum creatinine observed in patients taking dronedarone may have led investigators to discontinue ACE/AII treatment (table 4).

CCCCc1oc2ccccc2c1C(=O)c1cc(I)c(OCCN(CC)CC)c(I)c1 [amiodarone]
tubular secretion of creatinine [1]: decrease in the tubular secretion of creatinine

CN/C(=N/CCSCc1nc[nH]c1C)NC#N [cimetidine]
tubular secretion of creatinine [1]: decrease in the tubular secretion of creatinine

CCCCc1oc2ccc(NS(C)(=O)=O)cc2c1C(=O)c1ccc(OCCCN(CCCC)CCCC)cc1 [dronedarone, 2-n-butyl-3-[4-(3-di-n-butylaminopropoxy)benzoyl]-5-methylsulfonamido-benzofuran]
change in serum creatinine levels of the patient ([2]; administration of dronedarone in clinical trials): slight increase | return of creatinine levels to baseline after treatment discontinuation ([2]; after treatment discontinuation): within three days | time of occurrence of creatinine increase after treatment initiation ([2]; after treatment initiation): within two days | return of creatinine to baseline after temporary interruption of dronedarone ([2]; demonstrated in another clinical trial): ≤ 5 days | creatinine levels during treatment ([2]; during treatment): remained stable | maximal increase in creatinine levels compared to the level before administration ([2]; most patients with atrial fibrillation or atrial flutter): smaller than 30% | effect on creatinine secretion at the tubular level [3]: inhibition of creatinine secretion at the tubular level | effect on glomerular filtration [3]: no effect | effect on renal blood flow [3]: no effect | patients who died among those who never interrupted ACE inhibitors/AII receptor antagonists [4]: 4% | patients who discontinued ACE/AII and experienced blood creatinine increased or renal impairment adverse events ([4]; of 41 patients who discontinued ACE/AII): 14 patients

COc1cc(Cc2cnc(N)nc2N)cc(OC)c1OC [trimethoprim]
tubular secretion of creatinine [1]: decrease in the tubular secretion of creatinine
